In patent US11548903B2, “Bicyclic thiazine and oxazine derivatives as beta-secretase inhibitors and methods of use” (AMGEN INC., priority 2016, dated 2023):

Assays:
[1] = biological target: human recombinant BACE1 (Homo sapiens (Human), UniProt P56817); test: In vitro enzymatic BACE1 FRET assay; assay type: biochemical; details: read-out: BACE1 Enzyme IC50
Method: (§1) In Vitro Enzymatic BACE1 and BACE2 FRET (Fluorescence Resonance Energy Transfer) Assays […] These recombinant proteins were further purified using Ni-NTA affinity chromatography (Qiagen). […] The assay was effectively started by the addition of FRET substrate (50 nM) and the combination was incubated for one hour. The FRET assay was terminated by the addition of tris buffer, which raised the pH to neutrality, and the fluorescence was determined. The FRET substrate was a peptide with commercially available fluorophore and quencher, on opposite sides of the BACE cleavage site. The specific FRET substrate used in this assay was made by Amgen in-house. Commercially available FRET substrates, for example, the FRET substrate offered with the BACE1 FRET Assay Kit sold by ThermoFisher Scientific (Catalog Number P2985), may be used in this assay with the appropriate modifications, which are within the purview of the ability of a person with ordinary skill in the art. Proteolytic cleavage of the FRET substrate released quenching of fluorescence (excitation 488 nm and emission 590 nm).

[2] = tested on: BACE1 (Aβ40 from cells stably expressing Amyloid Precursor Protein); test: In vitro BACE1 cell-based assay (Aβ40 in conditioned medium, HTRF); details: Aβ40, 24 h incubation; read-out: BACE1 Cell IC50
Method: In Vitro BACE1 Cell-Based Assay The cell-based assay measures inhibition or reduction of Aβ40 in conditioned medium of test compound treated cells expressing amyloid precursor protein. Cells stably expressing Amyloid Precursor Protein (APP) were plated at a density of 45K cells/well in 384 well plates (Corning/BioCoat 354663). The test compounds were then added to cells in 22-point dose response concentrations with the starting concentration being 62.5 μM. The compounds were diluted from stock solutions in DMSO and the final DMSO concentration of the test compounds on cells was 0.625%. The cells were cultivated overnight at 37° C. and 5% CO2 in DMEM supplemented with 10% FBS. After 24 h of incubation with the test compounds, the conditioned media was collected and the Aβ40 levels were determined using HTRF (Homogeneous Time Resolved Fluorescence). […] The HTRF to detect Aβ40 was performed in 384 well plates (Costar 3658). The antibody pair that were used to detect Aβ 40 from cell supernatants were ConfAb40 antibody (Amgen in-house) and biotinylated 6E10 (BIOLEGEND). As an alternative to ConfAb40, a commercially available antibody, Anti-beta Amyloid 1-40 antibody [BDI350] from Abcam, Cambridge, Mass. 02139-1517 (Product code: ab20068), may be used in this assay. […] The conditioned media was incubated with above antibodies and Streptavidin Allophycocyanin Conjugate for 30-60 minutes at 23° C. The final readout was performed on Envision from PerkinElmer.

[3] = biological target: human recombinant BACE2 (Homo sapiens (Human), UniProt Q9Y5Z0); test: In vitro enzymatic BACE2 FRET assay; assay type: biochemical; details: read-out: BACE2 Enzyme IC50
Method: as §1

[4] = biological target: Recombinant CatD (Homo sapiens (Human), UniProt P07339); test: In vitro enzymatic Cathepsin D (CatD) FRET assay; assay type: biochemical; details: read-out: Cat D Enzyme IC50
Method: In Vitro Enzymatic Cathepsin D (CatD) FRET Assay Recombinant CatD was expressed in CHO cells. The assay buffer for CatD was 0.05 M citrate pH 3.5, 10% DMSO final, 5 mM CHAPS. […] The assays was effectively started by the addition of different FRET substrates (20 nM for CatD) and the combination was incubated for one hour. The FRET assay was terminated with by addition of tris buffer, which raises the pH to neutrality, and the fluorescence was determined. The FRET substrate was a peptide with commercially available fluorophore and quencher, on opposite sides of the CatD cleavage site. The CatD substrate peptide sequence was based on sequence #1 of Table 1 from Gulnik et al., FEBS Lett. 413(2):379-384 (1997). Proteolytic cleavage of the FRET substrate released quenching of fluorescence (CatD excitation 500 nm and emission 580 nm). The in vitro CatD FRET assay data for each of the Examples is provided in Table 2, conducted by the first procedure described above. […] Thus, with this surprising selectivity profile, the compounds provided herein are believed to minimize, reduce or completely eliminate any risk of retinal atrophy and abnormal development of the eye and of the retinal pigmented epithelium as it relates to the normal function and activity of CatD.

Chain of human recombinant BACE1 (P56817 46-501): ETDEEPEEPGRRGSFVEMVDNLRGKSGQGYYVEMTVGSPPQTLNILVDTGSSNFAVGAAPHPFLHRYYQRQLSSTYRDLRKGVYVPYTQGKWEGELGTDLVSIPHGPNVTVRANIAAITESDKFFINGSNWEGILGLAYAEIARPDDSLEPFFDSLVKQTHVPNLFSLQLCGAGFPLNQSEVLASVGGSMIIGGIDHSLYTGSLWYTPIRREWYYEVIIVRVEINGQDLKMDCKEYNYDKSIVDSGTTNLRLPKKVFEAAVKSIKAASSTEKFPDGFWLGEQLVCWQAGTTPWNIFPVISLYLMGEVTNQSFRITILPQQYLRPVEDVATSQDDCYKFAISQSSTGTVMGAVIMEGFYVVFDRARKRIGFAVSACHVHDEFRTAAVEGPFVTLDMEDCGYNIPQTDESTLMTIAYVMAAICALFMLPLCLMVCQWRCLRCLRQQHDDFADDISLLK
Chain of Recombinant CatD (P07339 65-412): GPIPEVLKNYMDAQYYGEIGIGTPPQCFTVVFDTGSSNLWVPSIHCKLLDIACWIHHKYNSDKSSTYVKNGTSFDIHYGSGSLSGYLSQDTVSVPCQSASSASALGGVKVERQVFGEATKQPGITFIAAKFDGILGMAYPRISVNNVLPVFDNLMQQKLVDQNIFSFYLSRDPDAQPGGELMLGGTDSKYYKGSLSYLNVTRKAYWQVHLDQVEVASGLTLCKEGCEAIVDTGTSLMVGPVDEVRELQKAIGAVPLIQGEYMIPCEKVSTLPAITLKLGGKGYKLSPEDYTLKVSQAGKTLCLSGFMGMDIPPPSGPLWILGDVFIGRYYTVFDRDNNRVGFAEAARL
Chain of human recombinant BACE2 (Q9Y5Z0 63-518): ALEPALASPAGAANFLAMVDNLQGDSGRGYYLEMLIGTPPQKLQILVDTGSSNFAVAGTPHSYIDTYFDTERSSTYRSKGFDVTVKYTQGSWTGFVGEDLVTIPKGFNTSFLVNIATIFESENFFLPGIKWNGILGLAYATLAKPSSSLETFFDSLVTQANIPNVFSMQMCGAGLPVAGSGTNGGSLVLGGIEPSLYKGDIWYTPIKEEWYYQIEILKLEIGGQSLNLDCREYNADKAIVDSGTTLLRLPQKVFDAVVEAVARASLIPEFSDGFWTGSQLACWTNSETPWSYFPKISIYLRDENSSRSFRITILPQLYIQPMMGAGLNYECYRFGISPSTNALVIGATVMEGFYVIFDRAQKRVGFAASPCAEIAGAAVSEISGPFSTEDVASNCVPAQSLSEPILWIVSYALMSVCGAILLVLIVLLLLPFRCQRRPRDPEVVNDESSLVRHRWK

| Structure (SMILES) | IC50 [1] [nM] | IC50 [2] [nM] | IC50 [3] [nM] | IC50 [4] [nM] |
| --- | --- | --- | --- | --- |
| NC1=N[C@@]2(c3cc(/C=C(\F)c4ccc(OC(F)(F)F)cn4)ccc3F)CO[C@H](C(F)(F)F)[C@H]2CS1 [Example 129, (4aS,5S,7aS)-7a-(2-fluoro-5-((Z)-2-fluoro-2-(5-(trifluoromethoxy)pyridin-2-yl)vinyl)phenyl)-5-(trifluoromethyl)-4a,5,7,7a-tetrahydro-4H-furo[3,4-d][1,3]thiazin-2-amine] | 108 | 15.1 | 2220 | > 44400 |
| COc1nc(N2C[C@H]3CSC(N)=N[C@@]3(c3cc(/C=C(\F)c4ccc(C#N)cn4)ccc3F)C2)nc(C)c1F [Example 130, 6-((Z)-2-(3-((4aR,7aS)-2-amino-6-(5-fluoro-4-methoxy-6-methylpyrimidin-2-yl)-4,4a,5,6,7,7a-hexahydropyrrolo[3,4-d][1,3]thiazin-7a-yl)-4-fluorophenyl)-1-fluorovinyl)nicotinonitrile] | 0.405 | 0.906 | 1.78 | 25800 |
| N#Cc1ccc(/C(F)=C/c2ccc(F)c([C@]34CO[C@H](CF)[C@H]3CSC(N)=N4)c2)nc1 [Example 131, 6-((Z)-2-(3-((4aS,5S,7aS)-2-amino-5-(fluoromethyl)-4a,5,7,7a-tetrahydro-4H-furo[3,4-d][1,3]thiazin-7a-yl)-4-fluorophenyl)-1-fluorovinyl)nicotinonitrile] | 3.83 | 11.4 | 427 | > 400000 |
| NC1=N[C@@]2(c3cc(/C=C(\F)c4ccc(F)cn4)ccc3F)CO[C@H](C(F)(F)F)[C@H]2CS1 [Example 132, (4aS,5S,7aS)-7a-(2-fluoro-5-((Z)-2-fluoro-2-(5-fluoropyridin-2-yl)vinyl)phenyl)-5-(trifluoromethyl)-4a,5,7,7a-tetrahydro-4H-furo[3,4-d][1,3]thiazin-2-amine] | 426 | 112 | 427 | > 400000 |
| N#Cc1ccc(/C(F)=C/c2ccc(F)c([C@@]34CO[C@@H](CF)[C@@H]3CSC(N)=N4)c2)nc1 [Example 133, 6-((Z)-2-(3-((4aR,5R,7aR)-2-amino-5-(fluoromethyl)-4a,5,7,7a-tetrahydro-4H-furo[3,4-d][1,3]thiazin-7a-yl)-4-fluorophenyl)-1-fluorovinyl)nicotinonitrile] | 1220 | 2000 | 28000 | 139000 |
| COc1nc(N2C[C@H]3CSC(N)=N[C@@]3(c3cc(/C=C(\F)c4ccc(C#N)cn4)ccc3F)C2)ncc1F [Example 134, 6-((Z)-2-(3-((4aR,7aS)-2-amino-6-(5-fluoro-4-methoxypyrimidin-2-yl)-4,4a,5,6,7,7a-hexahydropyrrolo[3,4-d][1,3]thiazin-7a-yl)-4-fluorophenyl)-1-fluorovinyl)nicotinonitrile] | 1.4 | 0.9 | 4.3 | 59300 |
| N#Cc1ccc(/C(F)=C/c2ccc(F)c([C@]34CN(c5ncccn5)C[C@H]3CSC(N)=N4)c2)nc1 [Example 135, 6-((Z)-2-(3-((4aR,7aS)-2-amino-6-(pyrimidin-2-yl)-4,4a,5,6,7,7a-hexahydropyrrolo[3,4-d][1,3]thiazin-7a-yl)-4-fluorophenyl)-1-fluorovinyl)nicotinonitrile] | 4.3 | 1.8 | 22.3 | 106000 |
| COc1cnc(/C(F)=C/c2ccc(F)c([C@]34CO[C@H](C(F)(F)F)[C@H]3CSC(N)=N4)c2)cn1 [Example 136, (4aS,5S,7aS)-7a-(2-fluoro-5-((Z)-2-fluoro-2-(5-methoxypyrazin-2-yl)vinyl)phenyl)-5-(trifluoromethyl)-4a,5,7,7a-tetrahydro-4H-furo[3,4-d][1,3]thiazin-2-amine] | 622 | 2030 | 6630 | > 400000 |
| NC1=N[C@@]2(c3cc(/C=C(\F)c4ncc(C(F)(F)F)cc4Cl)ccc3F)CO[C@H](C(F)(F)F)[C@H]2CS1 [Example 137, (4aS,5S,7aS)-7a-(5-((Z)-2-(3-chloro-5-(trifluoromethyl)pyridin-2-yl)-2-fluorovinyl)-2-fluorophenyl)-5-(trifluoromethyl)-4a,5,7,7a-tetrahydro-4H-furo[3,4-d][1,3]thiazin-2-amine] | 15 | 200 | 605 | 382000 |
| Cc1cc(C#N)cnc1/C(F)=C/c1ccc(F)c([C@]23CO[C@H](C(F)(F)F)[C@H]2CSC(N)=N3)c1 [Example 138, 6-((Z)-2-(3-((4aS,5S,7aS)-2-amino-5-(trifluoromethyl)-4a,5,7,7a-tetrahydro-4H-furo[3,4-d][1,3]thiazin-7a-yl)-4-fluorophenyl)-1-fluorovinyl)-5-methylnicotinonitrile] | 27.2 | 116 | 1140 | > 400000 |
| NC1=N[C@@]2(c3cc(/C=C(\F)c4ccc(C(F)(F)F)cn4)ccc3F)CO[C@H](C(F)(F)F)[C@H]2CS1 [Example 139, (4aS,5S,7aS)-7a-(2-fluoro-5-((Z)-2-fluoro-2-(5-(trifluoromethyl)pyridin-2-yl)vinyl)phenyl)-5-(trifluoromethyl)-4a,5,7,7a-tetrahydro-4H-furo[3,4-d][1,3]thiazin-2-amine] | 15.8 | 117 | 1500 | > 400000 |
| N#Cc1cnc(/C(F)=C/c2ccc(F)c([C@]34CO[C@H](C(F)(F)F)[C@H]3CSC(N)=N4)c2)c(Cl)c1 [Example 140, 6-((Z)-2-(3-((4aS,5S,7aS)-2-amino-5-(trifluoromethyl)-4a,5,7,7a-tetrahydro-4H-furo[3,4-d][1,3]thiazin-7a-yl)-4-fluorophenyl)-1-fluorovinyl)-5-chloronicotinonitrile] | 8.7 | 48.2 | 220 | 333000 |
| N#Cc1ccc(/C(F)=C/c2ccc(F)c([C@]34CO[C@H](C(F)F)[C@H]3CSC(N)=N4)c2)nc1 [Example 144, 6-((Z)-2-(3-((4aS,5S,7aS)-2-amino-5-(difluoromethyl)-4a,5,7,7a-tetrahydro-4H-furo[3,4-d][1,3]thiazin-7a-yl)-4-fluorophenyl)-1-fluorovinyl)nicotinonitrile] | 21.6 | 18.1 | 741 | > 400000 |
| N#Cc1ccc(/C(F)=C/c2ccc(F)c([C@@]34CO[C@@H](C(F)F)[C@@H]3CSC(N)=N4)c2)nc1 [Example 145, 6-((Z)-2-(3-((4aR,5R,7aR)-2-Amino-5-(difluoromethyl)-4a,5-dihydro-4H-furo[3,4-d][1,3]thiazin-7a(7H)-yl)-4-fluorophenyl)-1-fluorovinyl)nicotinonitrile] | 48.5 | 41 | 1400 | > 400000 |
